According to patent US5466717A, “Halogenated 4'-methoxyacetophenones as microbicides and preservatives” (Buckman Laboratories Int'l, Inc., priority 1993, dated 1995):
Where two headings read alike, the source gives them in different places.

Legend:
[1] = system: E. aerogenes; test: Basal salts method, percentage kill of E. aerogenes (Table 5); type: cell-based, Enterobacter aerogenes; conditions: Klebsiella aerogenes
Procedure: Compounds 1 and 2 were tested against bacterial growth by the basal salts method described in U.S. Pat. No. 2,881,070, Column 5, line 12--Column 6, line 53. The disclosure of U.S. Patent No. 2,881,070 is specifically incorporated here by reference.

[2] = system: Pseudomonas aeruginosa; test: Pulp substrate method, percent kill of P. aeruginosa (Table 2); type: cell-based
Procedure: Compounds 1 and 2 were tested by the pulp substrate method described in detail in U.S. Pat. No. 2,881,070, column 5, line 12--column 6, line 53. The disclosure of U.S. Pat. No. 2,881,070 is specifically incorporated here by reference. […] The tests utilized Enterobacter aerogenes and Pseudomonas aeruginosa in pulp substrates that had been buffered at pH 7.0 and 8.0.

[3] = system: ALGAE; test: Long term control of algal growth on a paint film, ASTM D3456 (Table 8); conditions: latex paint on Southern yellow pine, 5 years and 5 months
Procedure: (§1) The effectiveness of halogenated 4'-methoxyacetophenones were evaluated for long term control of fungal and algal growth on a paint film following ASTM Procedure #D3456 (ASTM, 1916 Race St., Philadelphia, Pa. 19103). The test compared the effectiveness of compound 2, 2,2,3'-tribromo-4'-methoxyacetophenone, in latex paint with the commercially available biocides such as Nopcocide-96, and Troysan Polyphase over a period of 5 years and 5 months. The test paint was brush-applied (2 coats) over Southern yellow pine panels. A minimum of 24 hours was allowed between coats. The panels were rated based on the ASTM Procedure #D3274: […]

[4] = system: FUNGI; test: Long term control of fungal growth on a paint film, ASTM D3456 (Table 8); conditions: latex paint on Southern yellow pine, 5 years and 5 months
Procedure: as §1

[5] = pH 7.0, read-out: % Kill of P. aeroginosa
[6] = pH 8.0, read-out: % Kill of P. aeroginosa

Compound | killing at 2 ppm ([1]; pH 8.0) [%] | killing at 4 ppm ([1]; pH 8.0) [%] | killing at 8 ppm ([1]; pH 8.0) [%] | killing at 10 ppm ([1]; pH 6.0) [%] | killing at 10 ppm ([1]; pH 8.0) [%] | killing at 20 ppm ([1]; pH 6.0) [%] | killing at 20 ppm ([1]; pH 8.0) [%] | killing at 30 ppm ([1]; pH 6.0) [%] | killing at 30 ppm ([1]; pH 8.0) [%] | killing at 1 ppm [2, 5] [%] | killing at 1 ppm [2, 6] [%] | killing at 2 ppm [2, 5] [%] | killing at 2 ppm [2, 6] [%] | killing at 4 ppm [2, 5] [%] | killing at 4 ppm [2, 6] [%] | killing at 8 ppm [2, 5] [%] | killing at 8 ppm [2, 6] [%] | killing at 10 ppm [2, 5] [%] | killing at 10 ppm [2, 6] [%] | killing at 15 ppm [2, 5] [%] | other results
COc1ccc(C(=O)CBr)cc1Br [Compound 1, 2,3'-dibromo-4'-methoxyacetophenone] | 99 | 99.9 | 100 | 100 | 100 | 100 | 100 | 100 | 100 | 6 | 85 | 7 | 75 | 43 | 89 | 67 | 70 | 93 | 79 | 94 | killing at 15 ppm [2, 6]: 94%; killing at 20 ppm [2, 5]: 98%; killing at 20 ppm [2, 6]: 89%; killing at 25 ppm [2, 5]: 97%; killing at 25 ppm [2, 6]: 99%
COc1ccc(C(=O)C(Br)Br)cc1Br [Compound 2, 2,2,3'-tribromo-4'-methoxyacetophenone] | 57 | 100 | 100 | 100 | 100 | 100 | 100 | 100 | 100 | 15 | 0 | 0 | 54 | 36 | 25 | 17 | 71 | 80 | 86 | 97 | ALGAE rating in paint film preservation ([3]; 0.25%): 6.0; ALGAE rating in paint film preservation ([3]; 0.5%): 5.0; FUNGI rating in paint film preservation ([4]; 0.25%): 5.0; FUNGI rating in paint film preservation ([4]; 0.5%): 5.0; killing at 15 ppm [2, 6]: 94%; killing at 20 ppm [2, 5]: 98%; killing at 20 ppm [2, 6]: 99%; killing at 25 ppm [2, 5]: 97%; killing at 25 ppm [2, 6]: 99%
